Assay results reported in the NIST ThermoML archive (doi:10.1016/j.fluid.2019.02.010).

Assay: xn = mol fraction of the nth substance listed
Conditions: 101 kPa, Liquid, Vibrating tube method

CCN(CC)CC(=O)Nc1c(C)cccc1C [2-(diethylamino)-N-(2,6-dimethylphenyl)acetamide] + CCCCCCCCCC(=O)O
mass density [kg/m3]
Conditions	293 K	298 K	303 K	308 K	313 K	318 K	323 K	328 K
x2 = 0.667	960.9	956.8	952.8	948.7	944.7	940.6	936.4	932.3
x2 = 0.75	952.5	948.4	944.3	940.2	936.1	931.9	927.7	923.5
x2 = 0.8	944.9	940.9	936.9	932.9	928.9	924.7	920.6	916.4

CCN(CC)CC(=O)Nc1c(C)cccc1C [2-(diethylamino)-N-(2,6-dimethylphenyl)acetamide] + CCCCCCCCCCCC(=O)O
x2 = 0.667
Conditions	mass density [kg/m3]
293 K	949.6
298 K	945.6
303 K	941.6
308 K	937.6
313 K	933.6
318 K	929.6
323 K	925.55
328 K	921.5

CCCCCCCCCC(=O)O [decanoic acid] + CC(C)[C@@H]1CC[C@@H](C)C[C@H]1O
x1 = 0.5
Conditions	mass density [kg/m3]
293 K	901.1
298 K	897.6
303 K	894
308 K	890.4
313 K	886.7
318 K	883.1
323 K	879.4
328 K	875.7

CCN(CC)CC(=O)Nc1c(C)cccc1C [2-(diethylamino)-N-(2,6-dimethylphenyl)acetamide] + Cc1ccc(C(C)C)c(O)c1
x2 = 0.667
Conditions	mass density [kg/m3]
293 K	989.1
298 K	985.4
303 K	981.6
308 K	977.9
313 K	974.2
318 K	970.4
323 K	966.6
328 K	962.9

Cc1ccc(C(C)C)c(O)c1 [3-methyl-6-isopropylphenol] + CCCCCCCCCC(=O)O
x2 = 0.5
Conditions	mass density [kg/m3]
293 K	931.8
298 K	928
303 K	924.2
308 K	920.3
313 K	916.5
318 K	912.6
323 K	908.7
328 K	904.9

CCCCCCCC[N+](CCCCCCCC)(CCCCCCCC)CCCCCCCC.[Br-] [tetraoctylammonium bromide] + CCCCCCCCCC(=O)O
x2 = 0.667
Conditions	mass density [kg/m3]
293 K	932.9
298 K	929.6
303 K	926.3
308 K	923
313 K	919.7
318 K	916.5
323 K	913.2
328 K	910
